# Results as given in patent US20100130621A1, “USE OF HYDROXYTYROSOL AS ANTI-AGING AGENT” (DSM IP ASSETS B.V., priority 2007, published 2010).
# Legend:
# [1] = tested on: skeletal muscle; details: oral administration of 1 g per day; cited from earlier work
# [2] = tested on: mitochondrial electron transport complex I; assay: Western blot of mitochondrial electron transport complex I protein in adipocytes; type: cell-based, murine; details: 3T3-L1 adipocytes, 48 hrs
# Description: (§1) Murine 3T3-L1 pre-adipocytes (American Type Culture Collection) were cultured in Dulbecco's Modified Eagle's Medium (DMEM) supplemented with 10% fetal bovine serum and allowed to reach confluence. Differentiation of pre-adipocytes was initiated with 1 μM insulin, 0.25 μM dexamethasone and 0.5 mM 3-isobutyl-1-methylxanthine in DMEM, supplemented with 10% fetal bovine serum. After 48 h, the culture medium was replaced with DMEM supplemented with 10% fetal bovine serum and 1 μM insulin. The culture medium was changed every other day with DMEM containing 10% fetal bovine serum. […] After treatment, cells were washed twice with ice-cold PBS, lysed in sample buffer (62.5 mM Tris-Cl pH 6.8, 2% SDS, 5 mM DTT) at room temperature and vortexed. Cell lysates were then boiled for 5 minutes and cleared by centrifugation (13,000 rpm, 10 minutes at 4° C.). Protein concentration was determined using the Bio-Rad DC protein assay. The soluble lysates (10 μg per lane) were subjected to 10% SDS-PAGE, proteins were then transferred to nitrocellulose membranes and blocked with 5% non-fat milk/TBST for 1 h at room temperature. Membranes were incubated with primary antibodies directed against PPAR-γ (1:1000), PGC-1α (1:1000), α-tubulin (1:10 000), Complex I (1:2000), Complex II (1:2000), Complex III (1:2000) and Complex V (1:2000) in 5% milk/TBST at 4° C. overnight. After washing membranes with TBST three times, membranes were incubated with horseradish peroxidase-conjugated secondary antibody for 1 h at room temperature. Western blots were developed using ECL (Roche Manheim, Germany) and quantified by scanning densitometry.
# [3] = tested on: PGC-1α; assay: Western blot analysis of PGC-1α protein level in adipocytes; type: cell-based, murine; details: 3T3-L1 adipocytes, 1.0 μM; bell-shape effect from 0.1 to 10.0 μM; mean±SE
# Description: as §1, with “Membranes were incubated with primary antibodies directed against PPAR-γ (1:1000), PGC-1α (1:1000), α-tubulin (1:10 000), Complex I (1:2000), Complex II (1:2000), Complex III (1:2000) and Complex V (1:2000) in 5% milk/TBST at 4° C. overnight. After washing membranes with TBST three times, membranes were incubated with horseradish peroxidase-conjugated secondary antibody for 1 h at room temperature.” left out
SMILES,mitochondrial biogenesis in skeletal muscle [1],"mitochondrial electron transport complex I protein, vs. control ([2]; 0.1 μM) [%]","mitochondrial electron transport complex I protein, vs. control ([2]; 1.0 μM) [%]","mitochondrial electron transport complex I protein, vs. control ([2]; 10.0 μM) [%]","PGC-1α protein expression (maximum), vs. control [3] [%]"
O=C1O[C@H]([C@@H](O)CO)C(O)=C1O [Vitamin C],decreases mitochondrial biogenesis,–,–,–,–
"OCCc1ccc(O)c(O)c1 [hydroxytyrosol, 3,4-dihydroxyphenylethanol]",–,131±16,163±31,138±21,205±52
